Laboratory results reported in patent EP4620956A1, “PARP1 INHIBITORS” (Zhejiang Yangli Pharmaceutical Technology Co., Ltd., priority 2022, dated 2024).

Assays:
[1] = molecular target: T1, PARP1 (Homo sapiens, UniProt P09874); test: Inhibition of PARP1 enzyme activity (chemiluminescence); assay type: biochemical
T1 construct: purchased BPS 80501

[2] = molecular target: T2, PARP2 (Homo sapiens, UniProt Q9UGN5); test: DNA trapping capability of PARP2 (HTRF); assay type: biochemical
T2 construct: purchased BPS 80502
T2 sequence (Q9UGN5 whole entry): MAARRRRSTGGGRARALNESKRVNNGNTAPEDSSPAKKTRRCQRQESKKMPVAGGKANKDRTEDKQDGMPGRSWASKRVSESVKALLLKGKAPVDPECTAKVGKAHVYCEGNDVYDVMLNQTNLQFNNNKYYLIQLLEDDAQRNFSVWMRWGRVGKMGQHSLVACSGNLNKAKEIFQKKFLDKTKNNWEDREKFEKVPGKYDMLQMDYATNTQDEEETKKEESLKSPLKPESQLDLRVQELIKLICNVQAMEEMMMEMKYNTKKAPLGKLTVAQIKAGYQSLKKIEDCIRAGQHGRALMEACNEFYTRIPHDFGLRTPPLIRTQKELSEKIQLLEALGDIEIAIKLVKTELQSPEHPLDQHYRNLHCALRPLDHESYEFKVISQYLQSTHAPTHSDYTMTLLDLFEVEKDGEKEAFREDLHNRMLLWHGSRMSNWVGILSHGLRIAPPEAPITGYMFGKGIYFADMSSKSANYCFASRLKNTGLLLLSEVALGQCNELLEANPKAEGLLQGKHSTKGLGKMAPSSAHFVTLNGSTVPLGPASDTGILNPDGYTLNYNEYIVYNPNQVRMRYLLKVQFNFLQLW

[3] = tested on: A549 WT; test: Cellular PARylation inhibition, high-content imaging, A549 WT; assay type: cell-based; settings: Homo sapiens, PARylation at the cellular level
Method: The inhibitory effect of the compounds on PARP1/PARP2 enzyme activity at the cellular level was detected using high-content imaging. A549 WT, PARP1-KO and PARP2-KO cell lines were established in-house, and the cells were revived. After the cells were stable, a sufficient number of cells were collected and 100 µL of the cell suspension was seeded into a 96-well plate. The next day, the example compounds with serially diluted concentrations were added. […] The plate was incubated for 1.5 hours (A549 WT and PARP2-KO cell lines) or 2 hours (PARP1-KO cell line). After removing the supernatant, 0.4 mM H2O2 was added and incubation was carried out for 10 minutes (A549 WT and PARP2-KO cell lines) or 1.5 mM H2O2 was added and incubation was carried out for 15 minutes (PARP1-KO cell line) to induce extensive cellular DNA damage. After removing the supernatant, the cells were fixed with 4% paraformaldehyde for 20 minutes, followed by treatment with 0.5% Triton X-100 for 20 minutes to increase the permeability of the cell membrane. After that, the cells were incubated with 3% BSA for 1 hour to prevent non-specific binding. […] The cell nuclei were stained for 30 minutes by adding 50 µL DAPI (invitrogen, R37606). After washing twice with PBS, images were acquired on OPERETTA CLS™ (PE) by scanning the cells under a 20x water objective lens in non-confocal mode, with 5 fields of view captured per well. […] The inhibition rate was calculated using the fluorescence values from the Max and Min wells, and the dose-response curve was fitted using the analysis software GraphPad Prism 5 to obtain the IC50 value of each compound for the enzyme activity.

[4] = tested on: A549 PARP2-KO cell line; test: Cellular PARylation inhibition, high-content imaging, PARP2-KO; assay type: cell-based; settings: PARylation at the cellular level
[5] = tested on: A549 PARP1-KO cell lines; test: Cellular PARylation inhibition, high-content imaging, PARP1-KO; assay type: cell-based
[6] = tested on: DLD-1 BRCA2^-/-; test: Anti-proliferative activity (CellTiter-Glo, 7 days), DLD-1 BRCA2-/-; assay type: cell-based, human
[7] = molecular target: T1, PARP1; test: PARP1-DNA trapping, fluorescence polarization (FP); assay type: biochemical
[8] = tested on: DLD-1 BRCA2^-/- cells; test: Apoptosis in BRCA2-deficient DLD-1 cells (Annexin V/PI flow cytometry); assay type: cell-based, human; settings: 7 days, different concentrations, three experiments, FIG. 4
Method: The mechanism of the anti-proliferative effect of the compounds on BRCA-mutated tumours was analysed, and the impact of the compounds on apoptosis in the BRCA2-mutated cell line was analysed by flow cytometry. BRCA2-deficient human colon cancer DLD-1 cells ([…]) were adherently cultured, with the culture conditions of RPMI1640 medium supplemented with 1% foetal bovine serum and 100 µg/mL hygromycin B. Once entering the logarithmic growth phase, the cells were collected and placed in a 6-well plate with 600,000 cells per well. The cells were allowed to adhere to the plate in a 37°C/5% CO2 incubator overnight. Different concentrations of compounds were added to each well and incubated in the incubator. After 7 days, the cells were collected and placed in a 96-well plate. 195 µL of Annexin V-FITC binding buffer was added to each well to resuspend the cells. Then 5 µL of Annexin V-FITC (beyotime, C1052) was added and gently mixed. […] The data acquired from the flow cytometer were analysed using FlowJo software.
For apoptosis analysis, the apoptosis samples were dragged into FlowJo, the raw data were double-clicked to open the graph window, and FSC-A was selected for the X-axis and SSC-A for the Y-axis. […] The "analysed cell population" was double-clicked in the SSC/FSC plot. […]

T1 sequence (P09874 whole entry): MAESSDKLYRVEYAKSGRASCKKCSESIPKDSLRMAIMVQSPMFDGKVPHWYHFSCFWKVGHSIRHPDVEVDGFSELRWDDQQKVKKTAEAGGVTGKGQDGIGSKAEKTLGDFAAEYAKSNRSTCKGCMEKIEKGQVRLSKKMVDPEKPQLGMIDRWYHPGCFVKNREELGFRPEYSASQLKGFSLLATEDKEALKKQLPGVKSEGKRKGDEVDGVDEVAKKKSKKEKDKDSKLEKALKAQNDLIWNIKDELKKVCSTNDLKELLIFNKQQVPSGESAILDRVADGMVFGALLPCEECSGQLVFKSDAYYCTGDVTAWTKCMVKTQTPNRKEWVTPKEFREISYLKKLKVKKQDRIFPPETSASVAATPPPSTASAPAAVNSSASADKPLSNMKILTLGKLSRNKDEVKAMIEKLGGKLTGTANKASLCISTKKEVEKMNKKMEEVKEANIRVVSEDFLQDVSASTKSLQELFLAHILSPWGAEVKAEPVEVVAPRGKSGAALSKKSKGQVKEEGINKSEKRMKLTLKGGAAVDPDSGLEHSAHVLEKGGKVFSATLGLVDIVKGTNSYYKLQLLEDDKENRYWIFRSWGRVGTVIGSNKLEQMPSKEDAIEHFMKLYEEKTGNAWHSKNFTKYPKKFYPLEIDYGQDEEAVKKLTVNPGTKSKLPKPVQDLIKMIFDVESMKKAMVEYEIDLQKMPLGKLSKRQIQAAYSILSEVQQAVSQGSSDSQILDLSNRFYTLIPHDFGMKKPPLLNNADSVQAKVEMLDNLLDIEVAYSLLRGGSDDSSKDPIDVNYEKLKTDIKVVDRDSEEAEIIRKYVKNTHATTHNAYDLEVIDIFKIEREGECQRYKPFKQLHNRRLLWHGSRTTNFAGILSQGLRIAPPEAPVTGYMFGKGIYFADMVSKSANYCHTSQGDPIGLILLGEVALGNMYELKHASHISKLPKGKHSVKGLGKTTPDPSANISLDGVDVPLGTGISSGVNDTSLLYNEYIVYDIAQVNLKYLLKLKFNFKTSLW

`[2H]C([2H])([2H])NC(=O)c1ccc(N2CCN(Cc3cnc4c(N)c(CC)c(=O)[nH]c4c3)CC2)c(F)n1` [Example 4, 5-(4-((8-Amino-7-ethyl-6-oxo-5,6-dihydro-1,5-naphthyridin-3-yl)methyl)piperazin-1-yl)-6-fluoro-N-(methyl-d3)picolinamide] showed an IC50 [1] of 0.48 nM, a PARP1/2 selectivity fold ([1]; PARP2 vs PARP1) of 39 fold and an EC50 [2] of 382 nM. For the same compound, the IC50 [3] was 5.2 nM, the IC50 ([4]; Homo sapiens, A549, read-out: PARP2-KO IC50) was 7.7 nM and the “PARP1 KO/PARP2 KO selectivity fold” value [4] was over 5222 fold. For the same compound, the “inhibition on the enzyme activity at the highest concentration” value ([5]; A549 PARP1-KO cell lines, 40 µM) was “no detectable inhibition”, the IC50 ([5]; Homo sapiens, A549, PARylation at the cellular level) was over 40000 nM and the “BRCA2 mutation/WT selectivity fold” value ([6]; DLD-1 WT vs DLD-1 BRCA2^-/-) was >2,178 fold. For the same compound, the IC50 ([6]; Homo sapiens, DLD-1, 168 h, BRCA2-mutated, 7 days) was 4.59 nM, the “capability to induce PARP1-DNA trapping higher than that of Olaparib” value ([7]; 2-hour time point, relative to Olaparib) was 48 fold and the “PARP1-DNA trapping activity stronger than that of AZD5305” value ([7]; 54-hour time point, relative to AZD5305) was 14 fold. For the same compound, the “time over which PARP1-DNA trapping activity could be maintained” value ([7]; FP, PARP1) was “more than 54 hours”, the Bottom ([7]; PARP1, 0.25 hour) was -8.7 and the EC50 ([7]; PARP1, 0.25 hour) was 3.11 nM. The Hillslope ([7]; PARP1, 0.25 hour) was 2.8, the Top ([7]; PARP1, 0.25 hour) was 108.7 and the Bottom ([7]; PARP1, 0.5 hour) was -6.3. It also gave an EC50 ([7]; PARP1, 0.5 hour) of 2.26 nM, a Hillslope ([7]; PARP1, 0.5 hour) of 2.9 and a Top ([7]; PARP1, 0.5 hour) of 105.6. For the same compound, the Bottom ([7]; PARP1, 1 hour) was -4.2, the EC50 ([7]; PARP1, 1 hour) was 2.58 nM and the Hillslope ([7]; PARP1, 1 hour) was 3.1. It also gave a Top ([7]; PARP1, 1 hour) of 109.1, a Bottom ([7]; PARP1, 2 hour) of -0.8 and an EC50 ([7]; PARP1, 2 hour) of 2.86 nM. The Hillslope ([7]; PARP1, 2 hour) was 3.0, the Top ([7]; PARP1, 2 hour) was 105.3 and the Bottom ([7]; PARP1, 4 hour) was -5.6. It also gave an EC50 ([7]; PARP1, 4 hour) of 2.99 nM, a Hillslope ([7]; PARP1, 4 hour) of 2.4 and a Top ([7]; PARP1, 4 hour) of 106.8. For the same compound, the Bottom ([7]; PARP1, 8 hour) was -6.8, the EC50 ([7]; PARP1, 8 hour) was 3.51 nM and the Hillslope ([7]; PARP1, 8 hour) was 2.6. It also gave a Top ([7]; PARP1, 8 hour) of 107.2, a Bottom ([7]; PARP1, 24 hour) of -4.4 and an EC50 ([7]; PARP1, 24 hour) of 3.97 nM. For the same compound, the Hillslope ([7]; PARP1, 24 hour) was 1.5, the Top ([7]; PARP1, 24 hour) was 79.2 and the Bottom ([7]; PARP1, 30 hour) was -8.8. For the same compound, the EC50 ([7]; PARP1, 30 hour) was 5.46 nM, the Hillslope ([7]; PARP1, 30 hour) was 1.2 and the Top ([7]; PARP1, 30 hour) was 79.1. For the same compound, the Bottom ([7]; PARP1, 48 hour) was -5.6, the EC50 ([7]; PARP1, 48 hour) was 4.58 nM and the Hillslope ([7]; PARP1, 48 hour) was 2.0. For the same compound, the Top ([7]; PARP1, 48 hour) was 51.0, the Bottom ([7]; PARP1, 54 hour) was -12.8 and the EC50 ([7]; PARP1, 54 hour) was 9.54 nM. For the same compound, the Hillslope ([7]; PARP1, 54 hour) was 0.8, the Top ([7]; PARP1, 54 hour) was 55.9 and the “proportion of apoptotic cells” value [8] was “higher proportion of apoptotic cells at different concentrations than the reference compound AZD5305”.
